From US20060276393A1, “Novel compositions for preventing and treating neurodegenerative and blood coagulation disorders” (Sirtris Pharmaceuticals, Inc., priority 2005, published 2006)

Assays:
recombinant SIR-2.1 = target: T1, recombinant SIR-2.1 (Caenorhabditis elegans, UniProt Q21921)
T1 sequence (Q21921 1-607): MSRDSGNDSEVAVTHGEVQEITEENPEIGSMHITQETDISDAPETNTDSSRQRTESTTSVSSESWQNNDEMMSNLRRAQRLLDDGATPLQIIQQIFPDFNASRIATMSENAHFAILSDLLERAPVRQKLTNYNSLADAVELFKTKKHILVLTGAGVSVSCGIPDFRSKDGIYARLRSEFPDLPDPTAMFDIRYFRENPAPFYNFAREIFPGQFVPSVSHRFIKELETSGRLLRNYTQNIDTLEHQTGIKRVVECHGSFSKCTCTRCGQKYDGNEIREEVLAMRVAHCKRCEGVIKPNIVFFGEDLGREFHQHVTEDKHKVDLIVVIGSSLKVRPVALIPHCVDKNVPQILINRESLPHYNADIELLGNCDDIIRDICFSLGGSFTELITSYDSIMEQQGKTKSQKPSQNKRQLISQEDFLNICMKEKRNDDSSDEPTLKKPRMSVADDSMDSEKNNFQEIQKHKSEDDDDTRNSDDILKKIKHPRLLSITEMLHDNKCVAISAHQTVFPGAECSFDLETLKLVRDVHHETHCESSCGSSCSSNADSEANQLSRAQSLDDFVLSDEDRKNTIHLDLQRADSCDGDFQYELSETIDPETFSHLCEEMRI
Description: STACs were dissolved at 10 mM in dimethylsulfoxide (DMSO) the day of the assay. […] Drosophila S2 cells were grown in Schneider media with fetal calf serum at 23-28° C., seeded at 9×10^4 cells/well, grown overnight and then exposed to 1 μM TSA, 500 μM polyphenols, and 200 μM FdL for 2 hr. Deacetylation of FdL with lysate from whole cells was determined as described^4. Unless otherwise indicated all initial rate measurements were means of three or more replicates obtained with single incubation times, at which point 5% or less of the substrate initially present was deacetylated.

Human recombinant SIRT2 = target: T2, Human recombinant SIRT2 (Homo sapiens, UniProt Q8IXJ6); test: SIRT2 deacetylation assay; assay type: biochemical; settings: increasing resveratrol; 25 μM Fluor de Lys-SIRT2, 25 μM NAD+, 20 min 37° C.
T2 sequence (Q8IXJ6 1-389): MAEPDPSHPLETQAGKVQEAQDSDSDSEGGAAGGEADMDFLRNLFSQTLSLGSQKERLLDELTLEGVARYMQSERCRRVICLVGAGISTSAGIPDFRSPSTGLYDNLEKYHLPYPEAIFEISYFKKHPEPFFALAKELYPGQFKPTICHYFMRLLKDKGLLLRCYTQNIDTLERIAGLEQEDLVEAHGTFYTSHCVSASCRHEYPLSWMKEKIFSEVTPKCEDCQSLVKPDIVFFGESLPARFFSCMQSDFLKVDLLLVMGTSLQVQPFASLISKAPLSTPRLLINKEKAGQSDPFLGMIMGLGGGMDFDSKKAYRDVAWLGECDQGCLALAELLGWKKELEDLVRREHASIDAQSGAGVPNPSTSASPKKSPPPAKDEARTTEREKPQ
Description: Yeast Sir2 and human SIRT1 are very homologous and differ from human SIRT2 by the addition of an N-terminal domain that is absent in SIRT2. […] Thus, based on the difference in structure of SIRT1 and SIRT2, i.e., the absence of an N-terminal domain (see FIG. 8), it is believed that the N-terminal domain of SIRT1 and Sir2 is necessary for activation by the compounds described herein. In particular, it is likely that the activator compounds described herein interact with the N-terminal portion of sirtuins. The N-terminal portion of SIRT1 that is necessary for the action of the compounds is from about amino acid 1 to about amino acid 176, and that of Sir2 is from about amino acid 1 to about amino acid 175.

rDNA locus (RDN1) = test: Ribosomal DNA recombination and silencing assays; assay type: cell-based, S. cerevisiae
Description: Pre-treated cells (RDN1::URA3) were harvested and spotted as 10-fold serial dilutions on either SC or SC with 5-fluororotic acid (5-FOA).
Ribosomal DNA silencing assays using the URA3 reporters were performed as previously described^26. Ribosomal DNA recombination frequencies were determined by plating W303AR cells^37 on YPD medium with low adenine/histidine and counting the fraction of half-red sectored colonies using Bio-Rad Quantity One software as previously described^35. At least 6000 cells were analyzed per experiment and all experiments were performed in triplicate.

[1] = tested on: thoracic spinal cord of EAE SJL/J mice; test: EAE spinal cord white matter damage; assay type: in vivo, mouse
Description: At day 40 post-immunization, mice from each group are sacrificed with an overdose of ketamine/xylazine. Spinal cords are dissected, fixed in 10% buffered formalin, and embedded in paraffin. Five micron thick sections are stained with Hematoxylin and Eosin (H&E) and Luxol Fast Blue (LFB) to assess myelin loss. Bielshowesky's silver impregnation is used to evaluate axonal integrity. To asses the amount of axonal loss, paraffin sections are exposed to monoclonal antibodies against mouse non-phosphorylated neurofilament H (Clone SMI-32, Stemberger Monoclonals, Baltimore, USA) and monoclonal antibodies against APP (Clone 22C11, Chemicon). SMI-32 is detected with a Cy3-labeled antibody and visualized by fluorescence microscopy. Anti-APP antibodies are detected by incubation with ColonoPAP, and APP-positive axons are visualized with 3,3′-diaminobenzidine (DAB).
The percentage of the spinal cord showing damage was determined in the cervical, thoracic and lumbar cord. At each level, regions in the 1) dorsal columns and 2) the lateral and ventral white matter tracts containing damaged fibers was circumscribed on photomontages (final magnification ×100) of the entire spinal cord. Damaged areas in each of the two regions were measured using a SummaSketch III (Summagraphics, Seymour, Conn.) digitizing tablet and BIOQUANT Classic 95 software (R&M Biometrics, Nashville, Tenn.). Measurements were also be made of the total area (damaged and nondamaged) of the 1) dorsal columns and 2) the lateral and ventral columns. For each section (one section per animal), the cumulative percent lesion areas were calculated for each region (dorsal column, lateral and ventral columns).

Human 293 = test: Survival of 293 cells; settings: 50 micromolar
Description: The number of live cells each time point was counted using a Coulter counter.

Structure (SMILES): Oc1ccc(/C=C/c2cc(O)cc(O)c2)cc1 [Resveratrol, 3,5,4′-Trihydroxy-trans-stilbene]
- Km of SIR-2.1 for the co-substrate NAD+ (recombinant SIR-2.1; 100 μM resveratrol, 10 μM Fluor de Lys): lowered the Km of SIR-2.1
- stimulated deacetylation (maximum) (recombinant SIR-2.1; dose-dependent, Fluor de Lys): up to 2.5 fold
- SIRT2 activity (Human recombinant SIRT2): decrease SIRT2 activity
- reduction of the frequency of rDNA recombination (rDNA locus (RDN1); SIR2-dependent): ~60%
- effect on rDNA silencing (rDNA locus (RDN1); URA3 reporter, 5-FOA): only minor effects on rDNA silencing
- rDNA recombination in the presence of nicotinamide (rDNA locus (RDN1); with Sir2 inhibitor nicotinamide): decreased
- degree of damage in dorsal, lateral and ventral white matter ([1]; resveratrol 200 mg/kg): slightly increased, albeit not significantly
- reduction of degree of damage in dorsal, lateral and ventral white matter ([1]; resveratrol 400 mg/kg, significant): approximately 40%
- Survival of 293 cells (Human 293; 0 h): 100%
- Survival of 293 cells (Human 293; 48 h): 5%
- Survival of 293 cells (Human 293; 96 h): 0%
